# Molecular target: T1, hSTING (Homo sapiens, UniProt Q86WV6, G230A/H232R/R293Q/R71H)
# T1 construct: host or cells: THP1-Dual KO-IFNAR2 cells
# Test: STING reporter assay (luciferase) in THP1-Dual KO-IFNAR2 cells stimulated with 2'3'cGAMP
# Format: cell-based
# Conditions: 2'3'cGAMP 15 μM, 24 h, luciferase reporter activity
# Description: STING pathway activation by the compounds described herein is measured using THP1-Dual™ cells (KO-IFNAR2).
# THP1-Dual™ KO-IFNAR2 Cells (obtained from invivogen) are maintained in RPMI, 10% FCS, 5 ml P/S, 2 mM L-glut, 10 mM Hepes, and 1 mM sodium pyruvate.
# Compounds are spotted in empty 384 well tissue culture plates (Greiner 781182) by Echo for a final concentration of 0.0017-100 μM. Cells are plated into the TC plates at 40 μL per well, 2×10E6 cells/mL. For activation with STING ligand, 2′3′cGAMP (MW 718.38, obtained from Invivogen), is prepared in Optimem media.
# The following solutions are prepared for each 1×384 plate: • Solution A: 2 mL Optimem with one of the following stimuli: • 60 uL of 10 mM 2′3′cGAMP->150 μM stock • Solution B: 2 mL Optimem with 60 μL Lipofectamine 2000->Incubate 5 min at RT
# 2 mL of solution A and 2 ml Solution B is mixed and incubated for 20 min at room temperature (RT). 20 uL of transfection solution (A+B) is added on top of the plated cells, with a final 2′3′cGAMP concentration of 15 μM. The plates are then centrifuged immediately at 340 g for 1 minute, after which they are incubated at 37° C., 5% CO2, >98% humidity for 24 h. Luciferase reporter activity is then measured. EC50 values are calculated by using standard methods known in the art.
# Luciferase reporter assay: 10 μL of supernatant from the assay is transferred to white 384-plate with flat bottom and squared wells. One pouch of QUANTI-Luc™ Plus us dissolved in 25 mL of water. 100 μL of QLC Stabilizer per 25 mL of QUANTI-Luc™ Plus solution is added. 50 μL of QUANTI-Luc™ Plus/QLC solution per well is then added. Luminescence is measured on a Platereader (e.g., Spectramax I3X (Molecular Devices GF3637001)).
# Luciferase reporter activity is then measured. EC50 values are calculated by using standard methods known in the art.
# T1 sequence (Q86WV6 whole entry R71H/G230A/H232R/R293Q): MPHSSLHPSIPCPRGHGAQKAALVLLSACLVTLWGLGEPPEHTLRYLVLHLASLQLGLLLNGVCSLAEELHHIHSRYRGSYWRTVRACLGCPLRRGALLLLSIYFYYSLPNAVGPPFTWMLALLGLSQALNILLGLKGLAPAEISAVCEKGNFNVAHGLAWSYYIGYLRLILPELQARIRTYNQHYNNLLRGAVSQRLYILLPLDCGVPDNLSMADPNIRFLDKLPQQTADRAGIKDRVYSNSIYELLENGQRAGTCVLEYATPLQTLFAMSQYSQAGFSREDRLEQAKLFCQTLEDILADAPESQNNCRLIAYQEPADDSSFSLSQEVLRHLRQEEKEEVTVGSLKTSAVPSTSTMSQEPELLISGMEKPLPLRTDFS
row,SMILES,EC50 [nM]
1,"Cc1cc(NC(=O)Nc2c[nH]c3cc(F)c(F)cc23)cnc1N1CC(F)(F)C1 [Compound 162, 1-(5,6-difluoro-1H-indol-3-yl)-3-(6-(3,3-difluoroazetidin-1-yl)-5-methylpyridin-3-yl)urea]",200 to 1000
2,"C#CCC1CCN(c2ccc(NC(=O)Nc3c[nH]c4ccccc34)cn2)CC1 [Compound 172, 1-(1H-indol-3-yl)-3-(6-(4-(prop-2-yn-1-yl)piperidin-1-yl)pyridin-3-yl)urea]",200 to 1000
3,"Cc1cc(NC(=O)Nc2c[nH]c3cc(F)c(F)cc23)cnc1N1CC2(COC2)C1 [Compound 160, 1-(5,6-difluoro-1H-indol-3-yl)-3-(5-methyl-6-(2-oxa-6-azaspiro[3.3]heptan-6-yl)pyridin-3-yl)urea]",> 30000
4,"CO[C@@H]1CCCN(c2ncc(NC(=O)Nc3c[nH]c4cc(F)c(F)cc34)cc2Cl)C1 [Compound 149, (R)-1-(5-chloro-6-(3-methoxypiperidin-1-yl)pyridin-3-yl)-3-(5,6-difluoro-1H-indol-3-yl)urea]",200 to 1000
5,"Cc1cc(NC(=O)Nc2c[nH]c3cc(F)c(F)cc23)cnc1C1CCOCC1 [Compound 169, 1-(5,6-difluoro-1H-indol-3-yl)-3-(5-methyl-6-(tetrahydro-2H-pyran-4-yl)pyridin-3-yl)urea]",200 to 1000
6,"O=C(Nc1ccn(C2CCC(F)(F)CC2)n1)Nc1c[nH]c2ccc(F)cc12 [Compound 211, 1-(1-(4,4-difluorocyclohexyl)-1H-pyrazol-3-yl)-3-(5-fluoro-1H-indol-3-yl)urea]",1000 to 5000
7,"O=C(Nc1ccnc(C2CCC(F)(F)CC2)c1)Nc1c[nH]c2ccc(Cl)cc12 [Compound 255, 1-(5-chloro-1H-indol-3-yl)-3-(2-(4,4-difluorocyclohexyl)pyridin-4-yl)urea]",200 to 1000
8,"O=C(Nc1cnc(N2CC3(CN(CC(F)(F)F)C3)C2)c(F)c1)Nc1c[nH]c2ccc(Cl)cc12 [Compound 249, 1-(5-chloro-1H-indol-3-yl)-3-(5-fluoro-6-(6-(2,2,2-trifluoroethyl)-2,6-diazaspiro[3.3]heptan-2-yl)pyridin-3-yl)urea]",200 to 1000
9,"O=C(Nc1cnc(N2CCN(CC(F)(F)F)CC2)c(Cl)c1)Nc1c[nH]c2cc(F)c(F)cc12 [Compound 269, 1-(5-chloro-6-(4-(2,2,2-trifluoroethyl)piperazin-1-yl)pyridin-3-yl)-3-(5,6-difluoro-1H-indol-3-yl)urea]",40 to 200
10,"O=C(Nc1cn(C2CCC(F)(F)CC2)cn1)Nc1c[nH]c2ccc(F)cc12 [Compound 210, 1-[1-(4,4-difluorocyclohexyl)imidazol-4-yl]-3-(5-fluoro-1H-indol-3-yl)urea]",1000 to 5000
11,"O=C(Nc1cnc(C2CCC(F)(F)CC2)c(Cl)c1)Nc1c[nH]c2c(Br)cc(Cl)cc12 [Compound 247, 1-(7-bromo-5-chloro-1H-indol-3-yl)-3-(5-chloro-6-(4,4-difluorocyclohexyl)pyridin-3-yl)urea]",200 to 1000
12,"O=C(Nc1cnc(N2CC3(C2)CC(F)(F)C3)c(Cl)c1)Nc1c[nH]c2ccc(Cl)cc12 [Compound 138, 1-(5-chloro-1H-indol-3-yl)-3-(5-chloro-6-(6,6-difluoro-2-azaspiro[3.3]heptan-2-yl)pyridin-3-yl)urea]",40 to 200
13,"CC1(C)OCC(c2ncc(NC(=O)Nc3c[nH]c4ccc(Cl)cc34)cc2Br)CO1 [Compound 294, 1-(5-bromo-6-(2,2-dimethyl-1,3-dioxan-5-yl)pyridin-3-yl)-3-(5-chloro-1H-indol-3-yl)urea]",40 to 200
14,"O=C(Nc1cnc(N2CCC(F)(F)CC2)c(CCO)c1)Nc1c[nH]c2ccc(Cl)cc12 [Compound 127, 1-(5-chloro-1H-indol-3-yl)-3-(6-(4,4-difluoropiperidin-1-yl)-5-(2-hydroxyethyl)pyridin-3-yl)urea]",200 to 1000
15,"Cc1cc(NC(=O)Nc2c[nH]c3cc(F)c(F)cc23)cnc1N1CC2(CC(O)C2)C1 [Compound 161, 1-(5,6-difluoro-1H-indol-3-yl)-3-(6-(6-hydroxy-2-azaspiro[3.3]heptan-2-yl)-5-methylpyridin-3-yl)urea]",5000 to 100000
16,"O=C(Nc1cnc(N2CCC(F)(F)CC2)c(Cl)c1)Nc1c[nH]c2cc(F)c(Cl)cc12 [Compound 170, 1-(5-chloro-6-(4.4-difluoropiperidin-1-yl)pyridin-3-yl)-3-(5-chloro-6-fluoro-1H-indol-3-yl)urea]",40 to 200
17,"O=C(Nc1cnn(C2CCC(F)(F)CC2)c1)Nc1c[nH]c2ccc(Cl)cc12 [Compound 209, 1-(5-chloro-1H-indol-3-yl)-3-(1-(4,4-difluorocyclohexyl)-1H-pyrazol-4-yl)urea]",200 to 1000
18,"O=C(Nc1ccc(N2CCN(CC(F)(F)F)CC2)nc1)Nc1c[nH]c2ccc(F)cc12 [Compound 253, 1-(5-fluoro-1H-indol-3-yl)-3-(6-(4-(2,2,2-trifluoroethyl)piperazin-1-yl)pyridin-3-yl)urea]",200 to 1000
19,"O=C(Nc1cnc(C2CC(F)(F)C2)c(F)c1)Nc1c[nH]c2ccc(Cl)cc12 [Compound 227, 1-(5-chloro-1H-indol-3-yl)-3-(6-(3,3-difluorocyclobutyl)-5-fluoropyridin-3-yl)urea]",40 to 200
20,"O=C(Nc1cnn(CC2CCC2)c1)Nc1c[nH]c2ccc(Cl)cc12 [Compound 235, 1-(5-chloro-1H-indol-3-yl)-3-(1-(cyclobutylmethyl)-1H-pyrazol-4-yl)urea]",200 to 1000
21,"CC1(C)OCC(c2ncc(NC(=O)Nc3c[nH]c4ccccc34)cc2Cl)CO1 [Compound 263, 1-(5-chloro-6-(2,2-dimethyl-1,3-dioxan-5-yl)pyridin-3-yl)-3-(1H-indol-3-yl)urea]",200 to 1000

# Second part, the molecule after the results:
row,EC50 [nM],SMILES
1,40 to 200,"O=C(Nc1cnc(N2CCN(CC(F)(F)F)CC2)c(F)c1)Nc1c[nH]c2cc(F)c(F)cc12 [Compound 251, 1-(5,6-difluoro-1H-indol-3-yl)-3-(5-fluoro-6-(4-(2,2,2-trifluoroethyl)piperazin-1-yl)pyridin-3-yl)urea]"
2,40 to 200,"O=C(Nc1cnc(C2CCC(F)(F)CC2)c(Cl)c1)Nc1c[nH]c2ccc(C(F)F)cc12 [Compound 159, 1-(5-chloro-6-(4,4-difluorocyclohexyl)pyridin-3-yl)-3-(5-(difluoromethyl)-1H-indol-3-yl)urea]"
3,40 to 200,"O=C(Nc1cc(Cl)nc(C2CCC(F)(F)CC2)c1)Nc1c[nH]c2ccc(Cl)cc12 [Compound 221, 1-(5-chloro-1H-indol-3-yl)-3-(2-chloro-6-(4,4-difluorocyclohexyl)pyridin-4-yl)urea]"
4,40 to 200,"O=C(Nc1cnc(N2CCC(F)(F)CC2)c(Cl)c1)Nc1c[nH]c2ccc(F)cc12 [Compound 193, 1-(5-chloro-6-(4,4-difluoropiperidin-1-yl)pyridin-3-yl)-3-(5-fluoro-1H-indol-3-yl)urea]"
5,40 to 200,"COCCC1CCN(c2ncc(NC(=O)Nc3c[nH]c4cc(F)c(F)cc34)cc2Cl)CC1 [Compound 177, 1-(5-chloro-6-(4-(2-methoxyethyl)piperidin-1-yl)pyridin-3-yl)-3-(5,6-difluoro-1H-indol-3-yl)urea]"
6,40 to 200,"Cc1cc(NC(=O)Nc2c[nH]c3ccc(Cl)cc23)cnc1N1CC2(C1)CC(F)(F)C2 [Compound 129, 1-(5-chloro-1H-indol-3-yl)-3-(6-(6,6-difluoro-2-azaspiro[3.3]heptan-2-yl)-5-methylpyridin-3-yl)urea]"
7,40 to 200,"Cc1cc(NC(=O)Nc2c[nH]c3ccccc23)cnc1N1CCC2(CC1)CC2 [Compound 198, 1-(1H-indol-3-yl)-3-(5-methyl-6-(6-azaspiro[2.5]octan-6-yl)pyridin-3-yl)urea]"
8,40 to 200,"O=C(Nc1cnc(N2CCN(CCC(F)(F)F)CC2)c(F)c1)Nc1c[nH]c2ccc(F)cc12 [Compound 267, 1-(5-fluoro-1H-indol-3-yl)-3-(5-fluoro-6-(4-(3,3,3-trifluoropropyl)piperazin-1-yl)pyridin-3-yl)urea]"
9,40 to 200,"O=C(Nc1cnc(C2CCC(F)(F)CC2)c(F)c1)Nc1c[nH]c2ccc(Cl)cc12 [Compound 295, 1-(5-chloro-1H-indol-3-yl)-3-(6-(4,4-difluorocyclohexyl)-5-fluoropyridin-3-yl)urea]"
10,40 to 200,"CCc1cc(NC(=O)Nc2c[nH]c3ccc(Cl)cc23)cnc1N1CCC(F)(F)CC1 [Compound 131, 1-(5-chloro-1H-indol-3-yl)-3-(6-(4,4-difluoropiperidin-1-yl)-5-ethylpyridin-3-yl)urea]"
11,40 to 200,"O=C(Nc1cnc(N2CCC(F)(F)CC2)c(Cl)c1)Nc1c[nH]c2cc(F)c(F)cc12 [Compound 199, 1-(5-chloro-6-(4,4-difluoropiperidin-1-yl)pyridin-3-yl)-3-(5,6-difluoro-1H-indol-3-yl)urea]"
12,40 to 200,"CSc1ccc2[nH]cc(NC(=O)Nc3cnc(N4CCC(F)(F)CC4)c(Cl)c3)c2c1 [Compound 183, 1-(5-chloro-6-(4,4-difluoropiperidin-1-yl)pyridin-3-yl)-3-(5-(methylthio)-1H-indol-3-yl)urea]"

# Source: patent publication US20230127839A1, “COMPOUNDS AND COMPOSITIONS FOR TREATING CONDITIONS ASSOCIATED WITH STING ACTIVITY” (IFM Due, Inc., priority 2019, published 2023)
